Measured values from DBAASP.
Values after ≈ are worked out from the molar mass of the structure shown. Values joined by “and” are separate entries in the source; they are usually repeats but may differ in a detail not shown here. Equal values may be shown once. Blank lines part the entries; values can stand above or below the compound they belong to.

Tests used:
Assay in all cases: ≥ marks a high value that may be exact or a test limit, other limits are often not marked, values filed in µg/mL are converted to µM
[1] = system: Staphylococcus aureus BCRC 10781
[2] = system: Staphylococcus aureus BCRC 10780
[3] = system: Streptococcus equinus BCRC 14729
[4] = system: Klebsiella pneumoniae ATCC 700603
[5] = system: Enterobacter cloacae BCRC 10401
[6] = system: Vibrio alginolyticus BCRC 12829
Lactococcus garvieae = system: Lactococcus garvieae
[7] = system: Escherichia coli BCRC 10675
[8] = system: Klebsiella oxytoca BCRC 13985
[9] = system: Yersinia enterocolitica BCRC 13999
Streptococcus iniae = system: Streptococcus iniae
[10] = system: Vibrio parahaemolyticus BCRC 10806
Vibrio harveyi = system: Vibrio harveyi
[11] = system: Pseudomonas aeruginosa IFO 12582
[12] = system: Bacillus subtilis IFO 3134
Vibrio parahaemolyticus = system: Vibrio parahaemolyticus
[13] = system: Pseudomonas aeruginosa BCRC 10944
[14] = system: Listeria monocytogenes BCRC 14845
[15] = system: Vibrio anguillarum serotype O1
[16] = system: Pseudomonas aeruginosa ATCC 27583
[17] = system: Escherichia coli ATCC 25922
[18] = system: Staphylococcus xylosus BCRC 12930
[19] = system: Staphylococcus aureus IFO 12732
[20] = system: Klebsiella aerogenes BCRC 10370
[21] = system: Acinetobacter baumannii ATCC BAA-747
[22] = system: Escherichia coli IFO 12734
[23] = system: Staphylococcus aureus ATCC 43300
[24] = system: Enterococcus faecium ATCC 700221
Vibrio alginolyticus = system: Vibrio alginolyticus
[25] = system: Flavobacterium columnare G4
[26] = system: Aeromonas intestinalis 58209
[27] = system: Vibrio anguillarum SGL 8542
Aeromonas hydrophila 12 = system: Aeromonas hydrophila 12
[28] = system: Escherichia coli DH5alpha
[29] = system: Aeromonas sobria CR79-1-1
[30] = system: Pseudomonas fluorescens biotype I W81-11
[31] = system: Yersinia ruckeri SC90-2-4
[32] = system: Vibrio anguillarum E-3-11
[33] = system: Pseudomonas fluorescens 56-12-10
[34] = system: Candida albicans ATCC 10231
[35] = system: Saccharomyces cerevisiae ATCC 44774
[36] = system: Bacillus subtilis ATCC 62037
[37] = system: Pseudomonas putida ATCC 17426
[38] = system: Streptococcus mutans ATCC 25175
[39] = system: Cryptococcus neoformans ATCC 34881
[40] = system: Salmonella enterica subsp. enterica serovar Enteritidis ATCC 13076
[41] = system: Escherichia coli ATCC 27325
[42] = system: Staphylococcus aureus ATCC 15752
[43] = system: Trichophyton mentagrophytes IFO 5466
Pseudomonas aeruginosa = system: Pseudomonas aeruginosa
[44] = system: Staphylococcus aureus ATCC 6538P
[45] = system: Staphylococcus aureus KO-4
[46] = system: Trypanosoma brucei brucei GUT Tat3.1

- MIC [1]: ≥ 51.1 µM
- MIC [2]: ≥ 51.1 µM
- MIC [3]: ≥ 51.1 µM
- MIC [4]: 64 µM (≈ 160 µg/mL)
- MIC [5]: 12.8 µM (≈ 32 µg/mL)
- MIC [6]: ≥ 51.1 µM
- MIC (Lactococcus garvieae): 12.8 µM (≈ 32 µg/mL)
- MIC [7]: 25.5 µM (≈ 64 µg/mL)
- MIC [8]: 25.5 µM (≈ 64 µg/mL)
- MIC [9]: ≥ 51.1 µM
- MIC (Streptococcus iniae): ≥ 51.1 µM
- MIC (Vibrio harveyi): ≥ 51.1 µM
- MIC [11]: 9.98 µM (≈ 25 µg/mL)
- MIC [12]: 9.98 µM (≈ 25 µg/mL)
- MIC [13]: 25.5 µM (≈ 64 µg/mL)
- MIC [14]: ≥ 51.1 µM
- MIC [15]: 3.19 µM (≈ 8 µg/mL)
- MIC [16]: ≥ 32 µM
- MIC [17]: 8 µM (≈ 20 µg/mL)
- MIC [18]: ≥ 51.1 µM
- MIC [19]: 9.98 µM (≈ 25 µg/mL)
- MIC [20]: ≥ 51.1 µM
- MIC [21]: 8 µM (≈ 20 µg/mL)
- MIC [22]: 4.79 µM (≈ 12 µg/mL)
- MIC [23]: > 128 µM
- MIC [24]: 16 µM (≈ 40.1 µg/mL)
- MIC (Vibrio alginolyticus): ≥ 51.1 µM
SMILES: CC[C@H](C)[C@H](NC(=O)CN)C(=O)NCC(=O)N[C@@H](CCCCN)C(=O)N[C@@H](Cc1ccccc1)C(=O)N[C@@H](CC(C)C)C(=O)N[C@@H](Cc1cnc[nH]1)C(=O)N[C@@H](CO)C(=O)N[C@@H](C)C(=O)N[C@@H](CCCCN)C(=O)N[C@@H](CCCCN)C(=O)N[C@@H](Cc1c[nH]c2ccccc12)C(=O)NCC(=O)N[C@@H](CCCCN)C(=O)N[C@@H](C)C(=O)N[C@@H](Cc1ccccc1)C(=O)N[C@H](C(=O)NCC(=O)N[C@@H](CCC(=O)O)C(=O)N[C@H](C(=O)N[C@@H](CCSC)C(=O)N[C@@H](CC(N)=O)C(=O)N[C@@H](CO)C(N)=O)[C@@H](C)CC)C(C)C [GIGKFLHSAKKWGKAFVGEIMNS]
- MIC [10]: ≥ 51.1 µM
- MIC (Vibrio parahaemolyticus): 1.6 µM (≈ 4 µg/mL)

- MIC [25]: ≥ 56.6 µM
- MIC [26]: 14.1 µM (≈ 35.5 µg/mL)
- MIC [27]: ≥ 56.6 µM
- MIC (Aeromonas hydrophila 12): ≥ 160 µM
- MIC [28]: 7.07 µM (≈ 17.7 µg/mL)
- MIC [29]: 14.1 µM (≈ 35.5 µg/mL)
- MIC [30]: 14.1 µM (≈ 35.5 µg/mL)
- MIC [31]: 28.3 µM (≈ 71 µg/mL)
- MIC [32]: 28.3 µM (≈ 71 µg/mL)
- MIC [33]: 14.1 µM (≈ 35.5 µg/mL)
SMILES: CC[C@H](C)[C@H](N)C(=O)N[C@@H](Cc1ccccc1)C(=O)N[C@@H](Cc1cnc[nH]1)C(=O)N[C@@H](Cc1cnc[nH]1)C(=O)N[C@H](C(=O)N[C@@H](Cc1ccccc1)C(=O)N[C@@H](CCCCN)C(=O)NCC(=O)N[C@H](C(=O)N[C@H](C(=O)N[C@@H](Cc1cnc[nH]1)C(=O)N[C@H](C(=O)NCC(=O)N[C@@H](CCCCN)C(=O)N[C@H](C(=O)N[C@H](C(=O)N[C@@H](Cc1cnc[nH]1)C(=O)N[C@@H](CCCN=C(N)N)C(=O)N[C@@H](CC(C)C)C(=O)N[C@H](C(=O)N[C@H](C(=O)NCC(N)=O)[C@@H](C)O)C(C)C)[C@@H](C)CC)[C@@H](C)O)C(C)C)C(C)C)[C@@H](C)CC)[C@@H](C)CC [IFHHIFKGIVHVGKTIHRLVTG]

- MIC [34]: > 88.8 µM
- MIC [35]: ≥ 88.8 µM
- MIC [36]: ≥ 44.4 µM
- MIC [37]: ≥ 44.4 µM
- MIC [38]: ≥ 88.8 µM
- MIC [39]: ≥ 88.8 µM
- MIC [40]: ≥ 88.8 µM
- MIC [41]: ≥ 88.8 µM
- MIC [42]: ≥ 88.8 µM
SMILES: CC(C)[C@H](NC(=O)[C@H](CCCCN)NC(=O)CNC(=O)CNC(=O)[C@H](CCC(N)=O)NC(=O)[C@H](CCCCN)NC(=O)CNC(=O)[C@H](CCCN=C(N)N)NC(=O)CNC(=O)[C@@H](N)CCCCN)C(=O)N[C@@H](CCCN=C(N)N)C(=O)N[C@@H](C)C(=O)N[C@@H](CCCCN)C(=O)N[C@@H](C)C(=O)O [KGRGKQGGKVRAKA]

- MIC [43]: ≥ 41.8 µM
- MIC (Pseudomonas aeruginosa): 669 µM (≈ 799 µg/mL)
- MIC [44]: 0.837 µM and 1.67 µM
- MIC [45]: ≥ 502 µM
- MIC [46]: ≥ 500 µM
SMILES: CC[C@H](C)[C@H](NC(=O)[C@H](CCCN=C(N)N)NC(=O)[C@H](CC(C)C)NC(=O)[C@H](CCCN=C(N)N)NC(=O)[C@H](CC(C)C)NC(=O)[C@@H](N)CCCN=C(N)N)C(=O)NCC(=O)N[C@@H](CCCN=C(N)N)C(=O)N[C@@H](CCCN=C(N)N)C(N)=O [RLRLRIGRR]
